According to the NIST ThermoML archive (doi:10.1021/acs.jced.8b00537):

Assay: xn = mol fraction of the nth substance listed
Settings: 100 kPa, Liquid; for viscosity: Capillary tube (Ostwald / Ubbelohde) method; for speed of sound: Frequency=3 MHz, Single path-length method; for mass density: Vibrating tube method

C=CCn1cc[n+](C)c1.O=S(=O)([N-]S(=O)(=O)C(F)(F)F)C(F)(F)F + CCCO
Settings	mass density [kg/m3]	speed of sound [m/s]	viscosity [mPa·s]
293.15 K, x1 = 0.04962	915	1204.7	2.854
293.15 K, x1 = 0.1003	1005	1193.5	3.841
293.15 K, x1 = 0.1995	1136	1193.5	5.727
293.15 K, x1 = 0.2987	1228	1202.2	7.59
293.15 K, x1 = 0.399	1297	1210.6	9.85
293.15 K, x1 = 0.5003	1352	1221	12.17
293.15 K, x1 = 0.6007	1394	1227.5	15.66
293.15 K, x1 = 0.6971	1428	1234.7	19.1
293.15 K, x1 = 0.8024	1459	1241.9	24.1
293.15 K, x1 = 0.8974	1483	1246.5	30.62
293.15 K, x1 = 1	1505	1251.6	41.83
298.15 K, x1 = 0.04962	–	1189.4	–
298.15 K, x1 = 0.1003	–	1179	–
298.15 K, x1 = 0.1995	–	1180.2	–
298.15 K, x1 = 0.2987	–	1189.5	–
298.15 K, x1 = 0.399	–	1198.3	–
298.15 K, x1 = 0.5003	–	1208.9	–
298.15 K, x1 = 0.6007	–	1215.6	–
298.15 K, x1 = 0.6971	–	1222.9	–
298.15 K, x1 = 0.8024	–	1230.3	–
298.15 K, x1 = 0.8974	–	1235	–
298.15 K, x1 = 1	–	1240.2	–
303.15 K, x1 = 0.04962	906	1174	2.215
303.15 K, x1 = 0.1003	996	1164.6	2.899
303.15 K, x1 = 0.1995	1126	1167	4.266
303.15 K, x1 = 0.2987	1219	1176.9	5.633
303.15 K, x1 = 0.399	1287	1186	7.268
303.15 K, x1 = 0.5003	1341	1197	8.94
303.15 K, x1 = 0.6007	1384	1203.9	11.42
303.15 K, x1 = 0.6971	1418	1211.3	13.82
303.15 K, x1 = 0.8024	1449	1218.8	17.21
303.15 K, x1 = 0.8974	1472	1223.6	21.53
303.15 K, x1 = 1	1495	1228.9	28.51
308.15 K, x1 = 0.04962	902	1158.7	1.969
308.15 K, x1 = 0.1003	991	1150.4	2.555
308.15 K, x1 = 0.1995	1121	1153.9	3.74
308.15 K, x1 = 0.2987	1214	1164.4	4.928
308.15 K, x1 = 0.399	1282	1174	6.339
308.15 K, x1 = 0.5003	1336	1185.2	7.782
308.15 K, x1 = 0.6007	1379	1192.3	9.908
308.15 K, x1 = 0.6971	1413	1199.9	11.95
308.15 K, x1 = 0.8024	1444	1207.5	14.8
308.15 K, x1 = 0.8974	1467	1212.4	18.38
308.15 K, x1 = 1	1489	1217.8	23.96
313.15 K, x1 = 0.04962	898	1143.4	1.759
313.15 K, x1 = 0.1003	987	1136.2	2.266
313.15 K, x1 = 0.1995	1117	1140.9	3.302
313.15 K, x1 = 0.2987	1209	1152	4.344
313.15 K, x1 = 0.399	1277	1162	5.574
313.15 K, x1 = 0.5003	1331	1173.5	6.833
313.15 K, x1 = 0.6007	1374	1180.8	8.677
313.15 K, x1 = 0.6971	1408	1188.6	10.42
313.15 K, x1 = 0.8024	1439	1196.3	12.85
313.15 K, x1 = 0.8974	1462	1201.3	15.85
313.15 K, x1 = 1	1484	1206.8	20.41
318.15 K, x1 = 0.04962	893	1128.2	1.577
318.15 K, x1 = 0.1003	982	1122.1	2.021
318.15 K, x1 = 0.1995	1112	1128	2.938
318.15 K, x1 = 0.2987	1204	1139.7	3.858
318.15 K, x1 = 0.399	1272	1150.1	4.937
318.15 K, x1 = 0.5003	1326	1161.8	6.043
318.15 K, x1 = 0.6007	1369	1169.4	7.657
318.15 K, x1 = 0.6971	1403	1177.4	9.174
318.15 K, x1 = 0.8024	1434	1185.2	11.26
318.15 K, x1 = 0.8974	1457	1190.4	13.81
318.15 K, x1 = 1	1479	1196	17.51
323.15 K, x1 = 0.04962	889	1113	1.421
323.15 K, x1 = 0.1003	977	1108	1.813
323.15 K, x1 = 0.1995	1107	1115.1	2.632
323.15 K, x1 = 0.2987	1199	1127.5	3.453
323.15 K, x1 = 0.399	1268	1138.3	4.402
323.15 K, x1 = 0.5003	1321	1150.3	5.384
323.15 K, x1 = 0.6007	1364	1158.2	6.806
323.15 K, x1 = 0.6971	1398	1166.3	8.132
323.15 K, x1 = 0.8024	1429	1174.3	9.945
323.15 K, x1 = 0.8974	1452	1179.6	12.12
323.15 K, x1 = 1	1474	1185.2	15.19
328.15 K, x1 = 0.04962	884	1097.9	1.284
328.15 K, x1 = 0.1003	973	1094	1.635
328.15 K, x1 = 0.1995	1102	1102.2	2.37
328.15 K, x1 = 0.2987	1194	1115.3	3.106
328.15 K, x1 = 0.399	1263	1126.6	3.956
328.15 K, x1 = 0.5003	1316	1138.8	4.83
328.15 K, x1 = 0.6007	1359	1147	6.09
328.15 K, x1 = 0.6971	1393	1155.3	7.262
328.15 K, x1 = 0.8024	1424	1163.5	8.834
328.15 K, x1 = 0.8974	1447	1168.9	10.73
328.15 K, x1 = 1	1469	1174.7	13.23
333.15 K, x1 = 0.04962	880	1082.7	1.166
333.15 K, x1 = 0.1003	968	1080	1.48
333.15 K, x1 = 0.1995	1097	1089.5	2.146
333.15 K, x1 = 0.2987	1189	1103.1	2.812
333.15 K, x1 = 0.399	1258	1114.9	3.573
333.15 K, x1 = 0.5003	1312	1127.5	4.36
333.15 K, x1 = 0.6007	1354	1135.9	5.485
333.15 K, x1 = 0.6971	1388	1144.5	6.518
333.15 K, x1 = 0.8024	1419	1152.8	7.905
333.15 K, x1 = 0.8974	1442	1158.4	9.475
333.15 K, x1 = 1	1465	1164.2	11.62
338.15 K, x1 = 0.04962	875	1067.5	1.061
338.15 K, x1 = 0.1003	963	1065.9	1.347
338.15 K, x1 = 0.1995	1092	1076.7	1.953
338.15 K, x1 = 0.2987	1184	1091	2.558
338.15 K, x1 = 0.399	1253	1103.4	3.252
338.15 K, x1 = 0.5003	1307	1116.2	3.957
338.15 K, x1 = 0.6007	1349	1124.9	4.964
338.15 K, x1 = 0.6971	1383	1133.8	5.889
338.15 K, x1 = 0.8024	1414	1142.2	7.111
338.15 K, x1 = 0.8974	1437	1147.9	8.498
338.15 K, x1 = 1	1460	1153.8	10.28
343.15 K, x1 = 0.04962	870	1052.3	0.971
343.15 K, x1 = 0.1003	958	1052.2	1.23
343.15 K, x1 = 0.1995	1088	1064.2	1.786
343.15 K, x1 = 0.2987	1179	1078.9	2.342
343.15 K, x1 = 0.399	1248	1092.1	2.974
343.15 K, x1 = 0.5003	1302	1105	3.611
343.15 K, x1 = 0.6007	1345	1114	4.521
343.15 K, x1 = 0.6971	1378	1123.3	5.348
343.15 K, x1 = 0.8024	1409	1131.9	6.435
343.15 K, x1 = 0.8974	1433	1137.8	7.661
343.15 K, x1 = 1	1455	1143.5	9.125
